According to patent US20080167272A1, “Thalidomide metabolites and methods of use” (Auckland Uniservices Limited, priority 2005, published 2008):

Legend:
Colon 38 tumours [1] = test: Tumour growth delay, Colon 38 tumours in mice, combination with DMXAA; format: in vivo
Source text: Mice (C57B1/6 bred at the Animal Resources Unit, University of Auckland, New Zealand) were implanted with Colon 38 tumours, obtained originally from the Mason Research Institute (Auckland, New Zewaland) by transferring 1 mm^3 pieces of the tumour into a subcutaneous opening in the left flank of anaesthetized mice. The mice with tumours were used for growth delay experiments when tumours had reached approximately 3-5 mm in diameter. Mice were divided into 10 groups, an untreated control group, a group treated intraperitoneally (i.p.) with DMXAA (5,6-dimethylxanthenone-4-acetic acid, synthesized at the Auckland Cancer Society Research Centre—ACSRC (Auckland, New Zealand) at 25 mg/kg only, and 8 groups treated with DMXAA together with the hydrolytic thalidomide metabolites PG, PiG, CG also synthesized at the ACSRC as previously described (Lu et al, 2003), or thalidomide at 100 mg/kg, or together with CG or thalidomide at 20 mg/kg or 4 mg/kg. DMXAA was dissolved in saline at 2.5 mg/ml and injected i.p. into mice in a volume of 10 μl/g body weight. Thalidomide, PG, PiG and CG were dissolved in dimethylsulphoxide at 40, 8 or 1.6 mg/ml (for dosages of 100, 20, 4 mg/kg respectively) and injected i.p. in a volume of 2.5 μl/g body weight. Tumours were measured 2-3 times weekly after treatment and tumour volumes were calculated as 0.52×a^2×b, where a and b are the minor and major axes of the tumour. The arithmetic means and standard errors were calculated for each point, counting cured animals as having zero tumour volume, and expressed as fractions of the pre-treatment volume. Growth delay was determined as the difference in the number of days required for the tumour to reach four times the pre-treatment volume.

TNF = test: LPS-induced TNF production by HPBL in culture; format: cell-based, human; conditions: FIG. 5
Description: Blood (20 ml) each from seven healthy volunteers was collected into heparinized tubes, and was overlayed on top of 10 ml of Ficoll-Paque Plus (Amersham Biosciences AB, Uppsala, Sweden) in 50 ml Falcon polypropylene conical tubes (Becton Dickson Labware, Franklin Lakes, N.J.). The tubes were centrifuged for 30 min at 300×g and 4° C., and the layer of cells was removed and re-suspended at 1×10^6 cells/ml in A-MEM medium supplemented with foetal bovine serum (Moregate BioTech Ltd, Hamilton, New Zealand) (10% v/v), streptomycin sulphate (100 μg/ml) and penicillin-G (100 units/ml) (Sigma, St Louis, Mo., USA). Cells were added to a 24-well plate (Nunc, Kamstrup, Roskilde, Denmark) with LPS (Escherichia coli serotype 055:B5; Sigma, St. Louis, Mo., USA) plus thalidomide or CG at 0.04, 0.2, 1, 5, 25 & 100 μg/ml; or PG or PiG at 1, 5 & 25 μg/ml in a final volume of 1 ml. Wells containing cells only and cells plus LPS only were included as controls. After 12 hours of incubation, supernatants were removed and assayed immediately for TNF as described in section 4.
TNF was assayed using a commercially available ELISA kit (OpEIA human or murine TNF kit, PharMingen, San Diego, Calif., USA), according to the manufacturer's instructions. Briefly, samples (100 μl/well) in duplicate together with a serial dilution of TNF (31.25-2000 pg/ml) for the standard curve, were added to flat-bottom 96-well plates pre-coated with immobilised monoclonal anti-TNF antibody and incubated at room temperature for 2 h. The wells were then washed, biotinylated polyclonal antibody to TNF was added, followed by peroxidase-labelled streptavidin, and incubated at room temperature for 1 h. The wells were washed again, and the substrate, tetramethylbenzidine and hydrogen peroxide was added and after 10 min the reaction was stopped with 2 N sulphuric acid. The absorbance at 450 nm was determined using a microtitre plate reader.

ECV304 cells = test: Inhibition of tube formation of ECV304 cells in Matrigel; format: cell-based, human
Description: Each well in a 24-well plate was coated with 300 μl of Matrigel (Becton Dickinson, San Jose, Calif., USA) which was allowed to solidified at 37° C. for 1 h. […] After 15-18 h of incubation at 37° C. at 5% CO2, the culture supernatant was aspirated. The cells were fixed and stained using Diff-Quick staining kit (Dade AG, Dudingen, Switzerland) according to the manufacturer's instructions. After removal of the staining solution the stained cells in each well were photographed along with a measuring ruler placed at the bottom edge of the photographing field (Olympus Camedia C-5050 professional digital camera, Olympus Optical, Tokyo, Japan). The total length of the tubes formed in the photographs was measured and divided by the area of the field (mm/mm^2).

Colon 38 tumours [2] = test: Colon 38 tumour growth in mice, combination with cyclophosphamide; format: in vivo; conditions: CG 100 mg/kg plus cyclophosphamide 220 mg/kg; FIG. 9
Description: Mice (C57B1/6 bred at the Animal Resources Unit, University of Auckland, New Zealand) were implanted with Colon 38 tumours, obtained originally from the Mason Research Institute (Auckland, New Zewaland) by transferring 1 mm^3 pieces of the tumour into a subcutaneous opening in the left flank of anaesthetized mice. The mice with tumours were used for growth delay experiments when tumours had reached approximately 3-5 mm in diameter. […] Tumours were measured 2-3 times weekly after treatment and tumour volumes were calculated as 0.52×a^2×b, where a and b are the minor and major axes of the tumour. The arithmetic means and standard errors were calculated for each point, counting cured animals as having zero tumour volume, and expressed as fractions of the pre-treatment volume. Growth delay was determined as the difference in the number of days required for the tumour to reach four times the pre-treatment volume. […]

O=C1CCC(NC(=O)c2ccccc2C(=O)O)C(=O)N1 (stereo not shown) [CG, 2-{[(2,6-Dioxo-3-piperidinyl)amino]carbonyl}benzoic acid]
potentiation of DMXAA-induced anti-tumour effects (Colon 38 tumours [1]; 4 mg/kg co-administered with DMXAA 25 mg/kg, FIG. 1C): neither CG nor thalidomide showed potentiation | tumour volumes at 21 days after treatment compared with DMXAA alone (Colon 38 tumours [1]; 4 mg/kg co-administered with DMXAA 25 mg/kg, FIG. 2): no significant difference | potentiation of DMXAA activity against Colon 38 tumours (Colon 38 tumours [1]; 20 mg/kg co-administered with DMXAA 25 mg/kg, FIG. 1B): more effective than thalidomide plus DMXAA or DMXAA alone | tumour volume at 21 days after treatment compared with DMXAA alone (Colon 38 tumours [1]; 20 mg/kg co-administered with DMXAA 25 mg/kg, FIG. 2): significantly smaller tumour volume than those treated by DMXAA alone | tumour volumes at 21 days after treatment compared with DMXAA alone (Colon 38 tumours [1]; 100 mg/kg co-administered with DMXAA 25 mg/kg, FIG. 2): significantly smaller tumour volumes than those treated by DMXAA alone | inhibition of tumour growth compared with DMXAA alone (Colon 38 tumours [1]; 100 mg/kg i.p. co-administered with DMXAA 25 mg/kg, FIG. 1A): greater inhibition of tumour growth than that of DMXAA alone | tumour growth inhibition compared with thalidomide (Colon 38 tumours [1]; doses at or above 20 mg/kg, combined with DMXAA, FIGS. 1 & 2): greater tumour growth inhibition than thalidomide | effect on LPS-induced TNF production (TNF; HPBL, LPS 100 pg/ml, 12 h, all concentrations tested (PG, PiG: 1, 5, 25 μg/ml)): significantly decreased LPS-induced TNF levels in a dose-dependent manner | TNF inhibition in vitro compared with thalidomide (TNF; human cell system): as active as thalidomide | inhibition of tube formation (ECV304 cells; 250 μg/ml, FIGS. 6 & 7): Near complete inhibition | inhibition at 2 µg/mL (ECV304 cells; Homo sapiens, ECV-304, lowest concentration tested, 2 μg/ml, FIG. 7): 38 to 41% | angiogenesis inhibition in vitro compared with thalidomide (ECV304 cells; human cell system, FIGS. 6 & 7): as active as thalidomide | tumour size at day 15 after treatment, combination vs monotherapies (Colon 38 tumours [2]): significantly smaller than those treated with each of the monotherapies
